{
  "source": "patent US6270979A",
  "about": "(priority 1998, dated 2001)",
  "key": {"[1]": {"tested_on": "muscarinic m1 receptor mutant m1-E360A", "assay_type": "cell-based"}, "Mice": {"tested_on": "Mice", "assay_type": "in vivo"}, "PKA": {"tested_on": "PKA", "conditions": "known; cited from earlier work"}, "[2]": {"biological_target": "epitope-tagged μ opioid receptor (EE-μR) (Rattus norvegicus, UniProt P33535)", "sequence (P33535 whole entry)": "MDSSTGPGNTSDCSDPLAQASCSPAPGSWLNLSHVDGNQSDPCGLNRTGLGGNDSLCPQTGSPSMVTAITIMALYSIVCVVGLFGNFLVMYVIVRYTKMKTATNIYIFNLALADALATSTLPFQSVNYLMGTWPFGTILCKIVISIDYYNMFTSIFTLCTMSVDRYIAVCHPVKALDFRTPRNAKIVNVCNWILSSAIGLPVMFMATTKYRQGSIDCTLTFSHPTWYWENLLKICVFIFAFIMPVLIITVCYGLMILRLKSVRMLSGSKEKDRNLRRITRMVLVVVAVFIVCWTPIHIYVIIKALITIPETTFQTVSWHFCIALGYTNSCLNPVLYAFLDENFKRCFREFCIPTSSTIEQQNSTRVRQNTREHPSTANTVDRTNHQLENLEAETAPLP", "assay_type": "cell-based"}, "Male ICR mice": {"tested_on": "Male ICR mice", "conditions": "mouse, in vivo"}, "opioid μ receptor [3]": {"tested_on": "opioid μ receptor", "assay_type": "cell-based, human"}, "PKC": {"tested_on": "PKC", "conditions": "known; cited from earlier work"}, "opioid μ receptor [4]": {"biological_target": "opioid μ receptor (Homo sapiens, UniProt P35372)", "sequence (P35372 whole entry)": "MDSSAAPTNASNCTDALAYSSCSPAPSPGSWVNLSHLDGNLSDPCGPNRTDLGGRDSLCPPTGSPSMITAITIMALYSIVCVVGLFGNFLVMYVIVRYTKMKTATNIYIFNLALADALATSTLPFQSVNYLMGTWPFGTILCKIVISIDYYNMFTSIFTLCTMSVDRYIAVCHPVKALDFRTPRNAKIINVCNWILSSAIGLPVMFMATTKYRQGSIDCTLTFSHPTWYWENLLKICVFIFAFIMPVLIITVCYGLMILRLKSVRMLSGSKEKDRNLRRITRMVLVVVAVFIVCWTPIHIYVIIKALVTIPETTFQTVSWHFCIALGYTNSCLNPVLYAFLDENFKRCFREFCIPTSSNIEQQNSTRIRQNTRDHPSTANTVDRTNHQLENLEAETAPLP", "assay_type": "cell-based"}, "μ opioid receptor [5]": {"biological_target": "T1, μ opioid receptor (Rattus norvegicus, UniProt P33535)", "T1 sequence (P33535 whole entry)": "as the sequence (P33535 whole entry) above", "conditions": "added acutely, μ and EEμ receptor transfected HEK293 cells"}, "μ opioid receptor [6]": {"biological_target": "T1, μ opioid receptor", "experiment": "Receptor recycling through endocytic vesicles", "assay_type": "cell-based", "design": "expressed in transfected cells"}, "opioid μ receptor [7]": {"tested_on": "opioid μ receptor", "conditions": "prior knowledge; cited from earlier work"}, "[8]": {"tested_on": "D2 receptor (long splice isoform)", "experiment": "D2 receptor cAMP assay in stably transfected HEK293 cells", "assay_type": "cell-based", "conditions": "for negative antagonism at D2 receptor: preliminary, stably transfected HEK293 cells, quinpirole as agonist"}, "cAMP phosphodiesterase": {"tested_on": "cAMP phosphodiesterase", "conditions": "generally recognized; Beavo et al.; cited from earlier work"}},
  "note": "“Also recorded” adds a separate entry of the source. Where a name gives a salt, the structure may show the parent alone. Read-outs that look alike come from different tables or passages of the source.",
  "data": [
    {"molecule": "CN1[C@@H]2C[C@@H](OC(=O)[C@H](CO)c3ccccc3)C[C@H]1[C@@H]1O[C@@H]12", "note": "[scopolamine]", "values": [
      {"measurement": "classification at m1-E360A", "setting": "[1]", "value": "negative antagonists"},
      {"measurement": "effect on m1-E360A basal activity", "setting": "[1]", "value": "decreasing effects on m1-E360A basal activity"}
    ]},
    {"molecule": "CC1CNCCN1S(=O)(=O)c1cccc2cnccc12.Cl.Cl", "note": "(centres unmarked) [H7, 1-(5-isoquinolinesulfonyl)-2-methylpiperazine dihydrochloride]", "values": [
      {"measurement": "analgesia of second morphine dose, after H7", "setting": "Mice; mouse, in vivo", "value": "90±10", "unit": "%"},
      {"measurement": "effect on morphine antinociception", "setting": "Mice; mouse, in vivo", "value": "without affecting gross behavior of the animals or morphine antinociception"},
      {"measurement": "reversal of morphine tolerance", "setting": "Mice; mouse, in vivo, dihydrochloride", "value": "fully reversed morphine tolerance; also recorded: completely reversed tolerance; also recorded: reverse morphine tolerance and dependence in mice"},
      {"measurement": "protein kinase inhibition PKA", "setting": "PKA", "value": "known to inhibit several protein kinases including PKA and PKC"},
      {"measurement": "effect on μ receptor (μ*) phosphorylation", "setting": "[2]; dihydrochloride", "value": "strongly inhibits μ receptor phosphorylation; also recorded: inhibited μ* receptor phosphorylation"},
      {"measurement": "effect on gross behavior of the animals", "setting": "Male ICR mice", "value": "without affecting gross behavior of the animals"},
      {"measurement": "effect on naloxone induced withdrawal jumping", "setting": "Male ICR mice", "value": "strongly suppressed the number of naloxone precipitated jumps"},
      {"measurement": "effect on acute depression of cAMP levels by morphine", "setting": "opioid μ receptor [3]", "value": "did not prevent the acute depression of cAMP levels by morphine"},
      {"measurement": "effect on spontaneous cAMP overshoot induced by morphine pretreatment", "setting": "opioid μ receptor [3]", "value": "had some effects on the spontaneous cAMP overshoot"},
      {"measurement": "effect on naloxone cAMP overshoot / formation of μ* when added with morphine pretreatment", "setting": "opioid μ receptor [3]; dihydrochloride", "value": "abolished the naloxone-induced cAMP overshoot; also recorded: completely prevents the formation of μ* receptors"},
      {"measurement": "reversal of naloxone cAMP overshoot / μ* activity when added after morphine pretreatment", "setting": "opioid μ receptor [3]; dihydrochloride", "value": "rapidly reverses μ* activity; also recorded: completely reversed the naloxone cAMP overshoot"},
      {"measurement": "protein kinase inhibition PKC", "setting": "PKC", "value": "known to inhibit several protein kinases including PKA and PKC"}
    ]},
    {"molecule": "C[C@@H](NC(=O)[C@@H](N)Cc1ccc(O)cc1)C(=O)NCC(=O)N(C)[C@@H](Cc1ccccc1)C(=O)NCCO", "note": "[DAMGO]", "values": [
      {"measurement": "receptor phosphorylation, potency and efficacy relative to morphine", "setting": "[2]", "value": "slightly more potent and efficacious than morphine"},
      {"measurement": "classification of opioid drug (agonist / neutral / negative antagonist)", "setting": "opioid μ receptor [4]", "value": "full agonists and are either as effective if not more so than morphine"},
      {"measurement": "signaling, potency and efficacy relative to morphine", "setting": "μ opioid receptor [5]", "value": "slightly more potent and efficacious than morphine"},
      {"measurement": "receptor recycling through endocytic vesicles", "setting": "μ opioid receptor [6]", "value": "induced massive receptor recycling through endocytic vesicles"}
    ]},
    {"molecule": "C=C1[C@@H](O)[C@@H]2O[C@]3(CC[C@H](/C=C/[C@@H](C)[C@@H]4CC(C)=C[C@@]5(O[C@H](C[C@@](C)(O)C(=O)O)CC[C@H]5O)O4)O3)CC[C@H]2O[C@@H]1[C@@H](O)C[C@H](C)[C@H]1O[C@@]2(CCCCO2)CC[C@H]1C", "note": "[okadaic acid]", "values": [
      {"measurement": "effect of phosphatase inhibitor on enhancing μ*", "setting": "opioid μ receptor [3]", "value": "ineffective in enhancing μ*"}
    ]},
    {"molecule": "D-Phe-Cys-Tyr-D-Trp-Arg-Thr-Pen-ThrNH2 [CTAP]", "values": [
      {"measurement": "withdrawal jumps", "setting": "Male ICR mice", "value": "32±12", "unit": "jumps"}
    ]},
    {"molecule": "COC[C@@H]([C@H](O)[C@H](O)C(=O)NCC[C@H](C)c1nc(/C=C/C[C@@H]2O[C@]3(C[C@@H](O)[C@@H]2C)O[C@H]([C@H](C[C@H](O)[C@H](C)[C@H](O)[C@H](C)/C=C(C)/C(C)=C/C=C/C(C)=C\\C#N)OC)[C@H](OP(=O)(O)O)C3(C)C)co1)N(C)C", "note": "[calyculin A]", "values": [
      {"measurement": "effect on m1-E360A basal activity", "setting": "[1]; HEK293 cells", "value": "enhanced the basal activity"}
    ]},
    {"molecule": "Cl.Cl.NCCNS(=O)(=O)c1cccc2cnccc12", "note": "[H9, N-(2-aminoethyl)-5-isoquinolinesulfonamide dihydrochloride]", "values": [
      {"measurement": "effect on naloxone cAMP overshoot / formation of μ* when added with morphine pretreatment", "setting": "opioid μ receptor [3]", "value": "capable of preventing formation of the constitutively active μ receptor state"}
    ]},
    {"molecule": "CN1[C@@H]2CC[C@H]1C[C@@H](OC(=O)C(CO)c1ccccc1)C2", "note": "(some centres unmarked) [atropine]", "values": [
      {"measurement": "effect on m1-E360A basal activity", "setting": "[1]", "value": "decreasing effects on m1-E360A basal activity"}
    ]},
    {"molecule": "D-Phe-Cys-Tyr-D-Trp-Arg-Thr-Pen-Thr-NH2 [CTOP]", "values": [
      {"measurement": "blockade of acute effects of morphine (previously known)", "setting": "opioid μ receptor [7]", "value": "fully block the acute effects of morphine"},
      {"measurement": "classification of opioid drug (agonist / neutral / negative antagonist)", "setting": "opioid μ receptor [4]", "value": "neutral (null) antagonist; also recorded: neutral antagonists"},
      {"measurement": "effect on cAMP levels / constitutive activity in morphine pretreated cells", "setting": "opioid μ receptor [4]", "value": "not to reverse the constitutive activity of the μ receptor state; also recorded: does not act as an inverse agonist; also recorded: no effect on the constitutively active μ receptor state; also recorded: do not affect cAMP levels; also recorded: no significant effect on cAMP levels in dependent cells"},
      {"measurement": "effect on naloxone cAMP overshoot when combined with naloxone", "setting": "opioid μ receptor [4]", "value": "block the inverse agonist effects of naloxone; also recorded: Reversal of the naloxone cAMP overshoot"},
      {"measurement": "effect on acute depression of cAMP levels by morphine", "setting": "opioid μ receptor [3]", "value": "block the acute effects of morphine; also recorded: reversed the reduction of the cAMP level caused by morphine"}
    ]},
    {"molecule": "O=C(CCCN1CCC(O)(c2ccc(Cl)cc2)CC1)c1ccc(F)cc1", "note": "[haloperidol]", "values": [
      {"measurement": "negative antagonism at D2 receptor", "setting": "[8]", "value": "some degree of negative antagonism"}
    ]},
    {"molecule": "OCCN1CCN(CCCN2c3ccccc3Sc3ccc(C(F)(F)F)cc32)CC1", "note": "[thuphenazine]", "values": [
      {"measurement": "negative antagonism at D2 receptor", "setting": "[8]", "value": "some degree of negative antagonism"}
    ]},
    {"molecule": "CCN1CCCC1CNC(=O)c1cc(S(N)(=O)=O)ccc1OC", "note": "(centres unmarked) [sulpiride]", "values": [
      {"measurement": "negative antagonism at D2 receptor", "setting": "[8]", "value": "some degree of negative antagonism"}
    ]},
    {"molecule": "N=C(N)NCCNS(=O)(=O)c1cccc2cnccc12", "note": "[HA-1004, N(2-guanidinoethyl)-5-isoquinolinesulfonamide hydrochloride]", "values": [
      {"measurement": "effect on naloxone cAMP overshoot / formation of μ* when added with morphine pretreatment", "setting": "opioid μ receptor [3]", "value": "capable of preventing formation of the constitutively active μ receptor state"}
    ]},
    {"molecule": "C=CCN1CC[C@]23c4c5ccc(O)c4O[C@H]2C(=O)CC[C@@]3(O)[C@H]1C5", "note": "[naloxone]", "values": [
      {"measurement": "reversal of morphine dependence", "setting": "Male ICR mice", "value": "does not reverse the dependent state in vivo"},
      {"measurement": "withdrawal jumps", "setting": "Male ICR mice", "value": "77±20", "unit": "jumps"}
    ]},
    {"molecule": "CC(C)Cn1c(=O)n(C)c(=O)c2[nH]cnc21", "note": "[IBMX, 3-isobutyl-1-methyl-xanthine]", "values": [
      {"measurement": "cAMP phosphodiesterase inhibition", "setting": "cAMP phosphodiesterase", "value": "cAMP phosphodiesterase inhibitor"},
      {"measurement": "effect on μ receptor (μ*) phosphorylation", "setting": "[2]", "value": "suppressed μ receptor phosphorylation as observed for H7; also recorded: μ receptor kinase inhibitor; also recorded: inhibited μ* receptor phosphorylation"},
      {"measurement": "effect on naloxone cAMP overshoot / formation of μ* when added with morphine pretreatment", "setting": "opioid μ receptor [3]", "value": "suppresses μ* formation; also recorded: capable of preventing formation of the constitutively active μ receptor state"}
    ]},
    {"molecule": "CN1CCN(CCCN2c3ccccc3Sc3ccc(C(F)(F)F)cc32)CC1", "note": "[trifluoperatine]", "values": [
      {"measurement": "negative antagonism at D2 receptor", "setting": "[8]", "value": "some degree of negative antagonism"}
    ]},
    {"molecule": "CC(C)C[C@@H](NC(=O)[C@H](Cc1ccccc1)NC(=O)CNC(=O)[C@@H](C)NC(=O)[C@@H](N)Cc1ccc(O)cc1)C(=O)O", "note": "[DADLE]", "values": [
      {"measurement": "classification of opioid drug (agonist / neutral / negative antagonist)", "setting": "opioid μ receptor [4]", "value": "full agonists and are either as effective if not more so than morphine"}
    ]},
    {"molecule": "CN1CC[C@]23c4c5ccc(O)c4O[C@H]2[C@@H](O)C=C[C@H]3[C@H]1C5", "note": "[morphine]", "values": [
      {"measurement": "analgesia of second morphine dose, saline control", "setting": "Mice; 10 mg/kg morphine sulfate 5 hours after 100 mg/kg, 30 minutes after saline", "value": "22±14", "unit": "%"}
    ]},
    {"molecule": "O=C(CCCN1CCC2(CC1)C(=O)NCN2c1ccccc1)c1ccc(F)cc1", "note": "[spiperone]", "values": [
      {"measurement": "effect on cAMP levels in absence of agonist", "setting": "[8]; incubation in absence of agonist, relative to control", "value": "decreased cAMP levels relative to control"},
      {"measurement": "negative antagonism at D2 receptor", "setting": "[8]", "value": "some degree of negative antagonism"}
    ]},
    {"molecule": "C=CCN1CC[C@]23c4c5ccc(O)c4O[C@H]2[C@@H](O)C=C[C@H]3[C@H]1C5", "note": "[Nalorphine]", "values": [
      {"measurement": "classification of opioid drug (agonist / neutral / negative antagonist)", "setting": "opioid μ receptor [4]", "value": "neutral antagonists"},
      {"measurement": "effect on cAMP levels / constitutive activity in morphine pretreated cells", "setting": "opioid μ receptor [4]", "value": "no significant effect on cAMP levels in dependent cells"}
    ]}
  ]
}
